Test: Human HepG2 cell viability assay in 384 well format
Assay type: toxicity, cell-based
Design: dose 125 nL, time 70.5 hour; cytotoxicity at 70.5 h: concentration not given beside the values
Details: HepG2 cells, read-out: Inhibition

Compound	cytotoxicity at 70.5 h [%]
O=c1ccc(-n2cccn2)nn1CCNS(=O)(=O)c1ccc(F)c(Cl)c1	2.64
CNC(=O)C1Cc2ccccc2CN1CCc1cccs1 (centres undefined)	-8.64
Cc1nc(CNC2CCCN(c3cccnn3)C2)no1 (centres undefined)	22
O=S(=O)(c1ccc(F)cc1)N1CCCn2cnc(CN3CCCC3)c2C1	3.23
CC(C)c1nc2n(n1)CC(NCc1nnc(C(C)C)o1)CC2 (centres undefined)	-19.6
CCn1cnnc1CCNc1nc(C)cc(C)c1C#N	27.1
COc1ccccc1CN1C(=O)O[C@@H]2CN(c3nc(C)cc(C)n3)C[C@@H]21	-3.9
Cn1cc(C(=O)NC2CCN(C(=O)NCC3CCSCC3)CC2)cn1	-3.27
O=C1NCCN2CCN(C(=O)NCCc3ccccc3)CC12 (centres undefined)	-9.06
COc1ncc(NCc2csc(-c3ccco3)n2)cc1C(N)=O	-11
CNC(=O)NCC(=O)Nc1ccccc1N1CCc2ccccc21	-3.43
Cn1ncc2c1C(COCC1CC1)CN(Cc1ccsc1)C2 (centres undefined)	2.88
CNc1cc(N2CCCC2CNCc2ccc(C)o2)ncn1 (centres undefined)	5.47
CCOCC1CN(Cc2ccoc2)Cc2nn(CC3CC3)cc21 (centres undefined)	5.44
Cc1ccc(C(=O)NC2CCCN(S(C)(=O)=O)C2)c(=O)[nH]1 (centres undefined)	-2.62
O=C(c1ccncc1)N1CCCC1C1CCN(Cc2ccccc2)CC1 (centres undefined)	0.737
Cc1ccc2c(c1)CCC21CCN(C(=O)CO)CC1	-8.48
CC(O)CN1CCN(Cc2coc(-c3cccc(Cl)c3)n2)CC1 (centres undefined)	-1.14
COc1nc2c(cc1C(=O)NCc1noc(Cc3cccs3)n1)CCC2	-3.41
COCCn1ccc2c(NC(=O)C(C)C)cccc21	-1.52
Cc1cccc(-c2c[nH]c(C3CCCN3)n2)c1 (centres undefined)	-7.37
Cc1ccnn1-c1ccc(C(=O)N2CCCC(n3ccnc3)C2)cc1 (centres undefined)	-7.39
COC(=O)C(CNC(=O)Nc1nncs1)Cc1ccc(O)cc1 (centres undefined)	-2.82

Compound	cytotoxicity at 70.5 h [%]
COCC(=O)N1CCC2(CCN(Cc3ccccn3)CC2)CC1	-23.5
CN(C)c1cc(CNC(=O)Nc2ccc(F)cc2)ccn1	12.6
c1cnc(OCc2nnc3n2CCN(CC2CC2)C3)nc1	0.759
O=S(=O)(C1CC1)N1CCC2(COCc3cnc(-c4cccnc4)nc32)C1 (centres undefined)	-10.6
Cc1nonc1CC(=O)N1CCC2(CCCN(C3CCOCC3)C2=O)C1 (centres undefined)	-5.27
Cc1cc(CNCc2c(C)nn(C)c2N2CCOCC2)no1	-4.07
c1ccc(CCc2n[nH]c(C3CCC3)n2)cc1	-2.16
COCCOCC(=O)NCc1ccc(N(C)C)nc1	-5.23
CC1COCCN1C(=O)Cc1cc(Cl)c2c(c1)OCCCO2 (centres undefined)	-14.3
O=C(c1n[nH]cc1Cl)N1CCCC(n2nnc3cc(F)ccc32)C1 (centres undefined)	-5.16
CCc1nc(CN2CCCC(N(C)CCn3cccn3)C2)no1 (centres undefined)	57.1
CSc1nc2ncc3c(=O)n(C)ccc3n2n1	-8.16
Cc1cc(N2CCC(c3nccn3Cc3cscn3)CC2)ccn1	-3.14
Brc1ccc2[nH]c3c(c2c1)CCCC3c1nn[nH]n1 (centres undefined)	-14.8
CCc1nc(CN2CCN(C(=O)N3CCCCC3)CC2)cs1	21.4
O=C(O)c1ccc(F)c(S(=O)(=O)Nc2ccc(-n3cccn3)c(Cl)c2)c1	-6.87
Cc1cc(C)n(CC2CN(c3nnc(C)c(C)c3C#N)CCO2)n1 (centres undefined)	-3.24
Fc1ccc(OCC2CCCO2)c(NCc2noc(C3CC3)n2)c1 (centres undefined)	-7.27
Cc1ccc(CN2CC[C@H]3[C@H]2CCN3S(=O)(=O)C2CC2)cc1	-6.33
Cc1cc(N2CCC3(CCC(=O)N(CCO)C3)CC2)nc(N(C)C)n1	-3.81
CC(=O)N1CCN(C(=O)c2cc(C(C)C)no2)[C@H]2CS(=O)(=O)C[C@H]21	-3.64
Cc1ncsc1C(=O)N1CCc2[nH]nc(-c3ccc4c(c3)OCO4)c2C1	13.6
COCCCNc1ncc(-c2cccc(F)c2)c(-c2nccn2C)n1	-6.45

Compound	cytotoxicity at 70.5 h [%]
Cc1ccc(C(=O)N2C[C@H]3CN(Cc4csc(C)n4)C[C@H]3C2)cn1	1.63
O=C(C1CCCO1)N1CCCC2(CCN(c3cccnc3)CC2)C1 (centres undefined)	-3.98
COCCN1C2(CCN(CC3CC3)C2)c2ccccc2S1(=O)=O (centres undefined)	4.8
CC(C#N)CSc1ccccc1NCC(=O)NCc1cccs1 (centres undefined)	0.858
CC(NC(=O)C1=NN(C)C(=O)CC1)c1ccccc1Cl (centres undefined)	-96.4
Cn1nc(COCC2CC2)c2c1CN(C(=O)c1ccno1)CC2	-9.87
Cn1nc(Cn2ccnc2)c2c1CN(C(=O)c1ccc[nH]1)C2	-10.6
O=C(NCCC1=CCCCC1)c1cc(-c2ccc(O)cc2)n[nH]1	-1.77
Cc1c(Cl)cccc1S(=O)(=O)N1CCC2(CC1)OCCS2	-1.11
COC(=O)C1CCN(c2cc(C)nc(-c3ccncc3)n2)CC1	-8.27
O=S(=O)(c1cnccc1N1CCN(CCO)CC1)N1CCCCC1	27.8
CNC(=O)C1(CCCc2ccncc2)CCN1 (centres undefined)	-9.29
CCOc1cc(NC(=O)N2CCC3(CCOCC3)C2)ccc1C	-7.4
N#CC1C(=O)Nc2c(cnn2C2CCCC2)C12CCCCC2 (centres undefined)	-1.92
O=C(NC1CC1)[C@H]1CC[C@@H]2[C@@H](CCN2CCOCc2ccccc2)O1	-8.73
Cc1cccc(NC(=O)c2cnc(C3CCCNC3)cn2)n1 (centres undefined)	-2.31
COCC(=O)N1C[C@H]2CNC[C@@]2(C(=O)NCc2cccc3[nH]ccc23)C1	-3.16
O=C(NCCc1ccc(F)cc1)NC1CCCc2c1cnn2CCO (centres undefined)	-6.55
CNS(=O)(=O)CC(=O)N(Cc1c(F)cccc1Cl)C1CC1	-7.68
O=C1COC2(CCN(Cc3ccsc3)CC2)CN1	-4.53
CCOC(=O)[C@H]1CNC[C@@H]1C(=O)OCC	3.89
COc1cc(C#N)ccc1OCC(=O)N(C1CC1)C(C)c1ccco1 (centres undefined)	-9.56
CCNc1ncc(C(=O)NC2CCSC2)cn1 (centres undefined)	8.53

Compound	cytotoxicity at 70.5 h [%]
Cc1nc(C2CCCN2Cc2cc(Cl)c3c(c2)OCCCO3)no1 (centres undefined)	-7.15
CN(C)CCO[C@H]1CN(C(=O)c2cccs2)[C@@H]2COC[C@H]12	20.9
O=C(NCC(=O)N1CC2(CCCC2)c2c(F)cccc21)C1CC1	0.771
CCc1cc(N2CCN(c3cnccn3)CC2)n2nc(C)c(C)c2n1	10.7
Cc1cc(CNC(=O)CCc2c(C)nc3cc(O)nn3c2C)no1	-6.68
O=C(NC1CCCc2nc(N3CCCCC3)ncc21)C1CCCC1 (centres undefined)	-4.53
CC(c1ncc(C(C)(C)C)o1)N1CCN(Cc2ccco2)CC1 (centres undefined)	-5.45
COc1ccc(S(=O)(=O)C(F)(F)F)cc1NC(=O)CSC	-1.98
c1c(CN2CCCCC2)nc2n1CCN(CC1CC1)C2	0.696
COc1cccc(Cn2[nH]c(C)c3c(NC(=O)C(C)OC)nnc2-3)c1 (centres undefined)	-6.21
CN1CCOC(C(=O)N2CCOC3(CCCC3)C2)C1 (centres undefined)	-1.85
CCOc1nn(CC)cc1-c1nnc(SCc2cccnc2)n1C	-5.3
CCCN1CCc2[nH]nc(C(=O)N3CCNC(=O)C3)c2C1	-2.77
CCc1nc(NCCc2nc(C)c(C)s2)c2cnn(C)c2n1	-7.53
CCOC(C)c1nccn1Cc1c(C)noc1C (centres undefined)	-2.96
COC[C@@]12CCO[C@@H]1CCN(C(=O)Cc1cccc(F)c1)C2	2.86
O=C1CO[C@H]2CN(C3CCOCC3)C[C@H]2N1Cc1ccccn1	1.72
Fc1ccc(CN2CCCC2Cn2cccn2)c2ncccc12 (centres undefined)	-10.6
CC(C#N)CN(C)C(=O)c1cn(-c2ccc(Br)cc2)cn1 (centres undefined)	-1.57
Cc1nc(CNC(=O)N2CCN(c3ccc(Cl)cn3)CC2)no1	3.34
Cn1ccc(CN2CCCN(c3nccs3)CC2)cc1=O	-1.81
c1ccc(-c2cnn3cc(CN4CCC5(CCO5)CC4)cnc23)cc1	1.13
CN1CCN(C2CCN(Cc3ccc(Cl)s3)CC2)C1=O	-0.237

Compound	cytotoxicity at 70.5 h [%]
CN1C[C@@H](C(=O)NC2CC2)[C@@]2(COc3ccc(F)cc3C2=O)C1	12.2
COCc1nc(C(=O)NS(=O)(=O)c2ccc(C)c(C)c2)cs1	25.8
CC(C)NC(=O)c1cc2c(nc1N(C)C)CCN(S(=O)(=O)C1CC1)CC2	7.69
Cc1cnn(Cc2ccc(NC(=O)N3CCCC3)cc2)c1	-3.9
CC(C)CC(NC(=O)c1ccco1)c1nc2cccnc2n1C (centres undefined)	-1.92
Cn1c(N)c2c(=O)n(C)c(-c3ccc(Cl)cc3)cc2c(C#N)c1=O	-8.81
CC(NS(C)(=O)=O)c1nc(-c2ccc(Br)cc2)no1 (centres undefined)	-5.32
CC(C)OC(=O)N1CCC(Cc2ccc(C(=O)O)cc2)C1 (centres undefined)	27.1
CCS(=O)(=O)c1ccc2oc([C@H]3CCN(Cc4ccncc4)C3)nc2c1	6.63
CC(C)Cc1ncc2c(n1)CN(c1nc(N(C)C)nc3c1CCCC3)C2	-0.189
CN(C)c1nccnc1C1CCCN(c2cnccn2)C1 (centres undefined)	-3.09
COc1ccc(OCCc2sc(C3(O)CCCNCC3)nc2C)cc1 (centres undefined)	2.2
COc1ccc(C2CCCN2C(=O)NCCn2ccnc2)cc1 (centres undefined)	1.98
COCc1cncc2c1CCN(C(=O)c1ccc(C)o1)C2	4.32
CC(C)CN1CC(c2nc(C3CC3)n[nH]2)CC1=O (centres undefined)	-9.82
c1nc2c(c(N3CCOCC3)n1)CCNCC2	-4.52
CCCNC(=O)N1CCc2ccc(S(=O)(=O)N3CCN(C)CC3)cc2C1	-16.2
CCn1ncc(CN2CCCC(n3c(=O)oc4ccccc43)C2)c1C (centres undefined)	-3.68
CCOCCCNC(=O)C1(C)CCC(=O)N1c1ccccc1OC (centres undefined)	-8.49
Cc1ccc(CN2CCC(F)(F)C3(CCN(c4cnccn4)C3)C2)o1 (centres undefined)	-1.47
CC1(C)CNC(=O)c2nc(CCN3CCOCC3)[nH]c2C1	-7.47
CS(=O)(=O)CC1CCCN(C(=O)Cn2cccc(C(F)(F)F)c2=O)C1 (centres undefined)	6.87
